Data reported in PMC8070745, “FEN1 Blockade for Platinum Chemo-Sensitization and Synthetic Lethality in Epithelial Ovarian Cancers” (Cancers, 2021).

Experiments:
[1] = test system: A2780cis cells; assay: Clonogenic assay, A2780cis; type: cell-based, human; conditions: pre-treatment with importin β inhibitor, then cisplatin vs cisplatin only
Experimental: Clonogenic assay: In the clonogenic assay (colony formation assays), 32 cells/cm2 were seeded in 6-well plates and left at 37°C in a 5% CO2 atmosphere. Cisplatin (5µM) and/or FEN1i (10µM) and/or Importazole (5 µM, Selleckem, S8446 ) were added at the indicated concentrations and the plates were left at 37 °C in a 5% CO 2 atmosphere for 14 days. Later, the plates were washed with PBS, fixed and stained with a crystal violet, acetic acid and methanol solution and colonies were counted. […]

[2] = test system: FEN1 nuclear localization in A2780cis cells; assay: Confocal microscopy of FEN1 nuclear localization, A2780cis; type: cell-based, human; conditions: pre-treatment with importin β inhibitor (5 µM) followed by cisplatin
Experimental: For PEO1 and PEO4 cells, the cells where keep in culture up to four weeks ([…]) until spheroids structures were formed.
To quantify cell viability, LIVE/DEAD Viability/Cytotoxicity Kit (L3224, Thermo Fisher Scientific) was used. Briefly, the spheroids were harvest by trypsinization, washed with PBS and centrifuge at 1000×g for 5 minutes. The light-protected cellular pellet in PBS was loaded with 0.1µM of Calcein-AM and 1 µM of Ethidium homodimer-1 for 20 minutes at room temperature. The samples were analysed on a Beckman-Coulter FC500 flow cytometer using a 495nm laser for excitation and a 515nm laser for emission data for Calcein AM and a 495nm laser for excitation and emission at 635nm for Ethidium Homodimer-1. In addition, Image J software was used to calculate spheroid diameter. Mean of three diagonal diameters was taken as diameter for each spheroid. At least 10 spheroids were measured. […]
Laboratories). Imaging was carried out using Leica SP2 confocal laser scanning microscope (CLSM) and analysed with ImageJ software (NIH, USA). For analysis a minimum of 100 cells per slide were counted.
On 3D structures, the spheroids were fixed with 4% paraformaldehyde for 30 minutes. […] Imaging was carried out using Leica SP2 confocal laser scanning microscope (CLSM) and analysed with ImageJ software (NIH, USA). […]

[3] = test system: BRCA deficient germ-line or platinum-sensitive sporadic epithelial ovarian cancers; parameters: method as in PMID 22452356, PMID 27717299, PMID 28916367, PMID 27908594; conditions: maintenance therapy in patients; cited from earlier work

SMILES | effect on cisplatin sensitivity [1] | nuclear localization of FEN1 [2] | progression-free survival [3]
CC(Nc1nc(N2CCCC2)nc2ccccc12)c1ccccc1 (centres unmarked) [Importanzole] | re-sensitized these cells to cisplatin therapy | reduced nuclear localization of FEN1 | 
NC(=O)c1cccc2cn(-c3ccc([C@@H]4CCCNC4)cc3)nc12 [Niraparib] |  |  | substantially improves progression-free survival
O=C(c1cc(Cc2n[nH]c(=O)c3ccccc23)ccc1F)N1CCN(C(=O)C2CC2)CC1 [Olaparib] |  |  | substantially improves progression-free survival
CNCc1ccc(-c2[nH]c3cc(F)cc4c3c2CCNC4=O)cc1 [Rucaparib] |  |  | substantially improves progression-free survival
